Experimental data from the supplement of paper PMC8671470.

system: K-562; assay: cell viability (% survival relative to DMSO control, bortezomib = 0%); higher = less cytotoxic; conditions: 1 nM; 72 h
Outline: (§1)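 In 384-well plates pre-printed with compounds at 1, 10, 100, 1000 or 10000 nM, duplicate wells received cells from 10 AML and 5 CML lines at densities within the linear growth range. The plates stayed at 37 °C with 5% CO2 for 72 h before CellTiter-Glo luminescence was recorded. Each entry is averaged percent survival. Scaling placed vehicle at 100% and a 10 µM positive control at 0%.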

| SMILES | cell viability [%] |
| --- | --- |
| CN(C)C(=O)[C@H](O)[C@H](Cc1ccccc1)NC(=O)c1cc2cc(Cl)ccc2[nH]1 | 79 |
| COc1ccc(CNC(=O)Nc2ncc([N+](=O)[O-])s2)cc1 | 85.6 |
| CCOP(=O)(OCC)C(=Cc1cc(C(C)(C)C)c(O)c(C(C)(C)C)c1)P(=O)(OCC)OCC | 91.1 |
| COc1ccc(-c2ccccc2)cc1NS(=O)(=O)c1cc(Cl)cc(Cl)c1O | 86.8 |
| C[C@H](NC(=O)c1sccc1OCc1ccc(Cl)cc1)c1ccccc1 | 96.4 |
| O=C(O)c1cc(Cl)cc(Cl)c1O [3,5-Dichlorosalicylic Acid] | 107 |
| O=C(O)C(=O)CBr [3-bromopyruvic acid] | 91.3 |
| NS(=O)(=O)c1ccc([N+](=O)[O-])cc1 [4-Nitrobenzenesulfonamide] | 103 |
| Cc1ccccc1C(C(=O)NC1CCCCC1)N(C(=O)Cn1ccnc1C)c1cccc(F)c1 (stereo unspecified) [AGI-5198] | 98.5 |
| CC(C)(C#N)c1cc(Cn2cncn2)cc(C(C)(C)C#N)c1 [Anastrozole] | 109 |
| O=C(O)C1=CC(=C(c2ccc(O)c(C(=O)O)c2)c2ccc(O)c(C(=O)O)c2)C=CC1=O [Aurintricarboxylic acid] | 88.9 |

same assay, conditions: 10 nM; 72 h

| SMILES | cell viability [%] |
| --- | --- |
| CN(C)C(=O)[C@H](O)[C@H](Cc1ccccc1)NC(=O)c1cc2cc(Cl)ccc2[nH]1 | 84.3 |
| COc1ccc(CNC(=O)Nc2ncc([N+](=O)[O-])s2)cc1 | 103 |
| CCOP(=O)(OCC)C(=Cc1cc(C(C)(C)C)c(O)c(C(C)(C)C)c1)P(=O)(OCC)OCC | 90.4 |
| COc1ccc(-c2ccccc2)cc1NS(=O)(=O)c1cc(Cl)cc(Cl)c1O | 105 |
| C[C@H](NC(=O)c1sccc1OCc1ccc(Cl)cc1)c1ccccc1 | 93.3 |
| O=C(O)c1cc(Cl)cc(Cl)c1O [3,5-Dichlorosalicylic Acid] | 125 |
| O=C(O)C(=O)CBr [3-bromopyruvic acid] | 97.6 |
| NS(=O)(=O)c1ccc([N+](=O)[O-])cc1 [4-Nitrobenzenesulfonamide] | 105 |
| Cc1ccccc1C(C(=O)NC1CCCCC1)N(C(=O)Cn1ccnc1C)c1cccc(F)c1 (stereo unspecified) [AGI-5198] | 101 |
| CC(C)(C#N)c1cc(Cn2cncn2)cc(C(C)(C)C#N)c1 [Anastrozole] | 95.3 |
| O=C(O)C1=CC(=C(c2ccc(O)c(C(=O)O)c2)c2ccc(O)c(C(=O)O)c2)C=CC1=O [Aurintricarboxylic acid] | 104 |

same assay, conditions: 100 nM; 72 h

| SMILES | cell viability [%] |
| --- | --- |
| CN(C)C(=O)[C@H](O)[C@H](Cc1ccccc1)NC(=O)c1cc2cc(Cl)ccc2[nH]1 | 94.3 |
| COc1ccc(CNC(=O)Nc2ncc([N+](=O)[O-])s2)cc1 | 108 |
| CCOP(=O)(OCC)C(=Cc1cc(C(C)(C)C)c(O)c(C(C)(C)C)c1)P(=O)(OCC)OCC | 118 |
| COc1ccc(-c2ccccc2)cc1NS(=O)(=O)c1cc(Cl)cc(Cl)c1O | 126 |
| C[C@H](NC(=O)c1sccc1OCc1ccc(Cl)cc1)c1ccccc1 | 87.6 |
| O=C(O)c1cc(Cl)cc(Cl)c1O [3,5-Dichlorosalicylic Acid] | 104 |
| O=C(O)C(=O)CBr [3-bromopyruvic acid] | 92.3 |
| NS(=O)(=O)c1ccc([N+](=O)[O-])cc1 [4-Nitrobenzenesulfonamide] | 97.1 |
| Cc1ccccc1C(C(=O)NC1CCCCC1)N(C(=O)Cn1ccnc1C)c1cccc(F)c1 (stereo unspecified) [AGI-5198] | 103 |
| CC(C)(C#N)c1cc(Cn2cncn2)cc(C(C)(C)C#N)c1 [Anastrozole] | 106 |
| O=C(O)C1=CC(=C(c2ccc(O)c(C(=O)O)c2)c2ccc(O)c(C(=O)O)c2)C=CC1=O [Aurintricarboxylic acid] | 82 |

same assay, conditions: 1000 nM; 72 h

| SMILES | cell viability [%] |
| --- | --- |
| CN(C)C(=O)[C@H](O)[C@H](Cc1ccccc1)NC(=O)c1cc2cc(Cl)ccc2[nH]1 | 105 |
| COc1ccc(CNC(=O)Nc2ncc([N+](=O)[O-])s2)cc1 | 89.4 |
| CCOP(=O)(OCC)C(=Cc1cc(C(C)(C)C)c(O)c(C(C)(C)C)c1)P(=O)(OCC)OCC | 101 |
| COc1ccc(-c2ccccc2)cc1NS(=O)(=O)c1cc(Cl)cc(Cl)c1O | 87.9 |
| C[C@H](NC(=O)c1sccc1OCc1ccc(Cl)cc1)c1ccccc1 | 97.2 |
| O=C(O)c1cc(Cl)cc(Cl)c1O [3,5-Dichlorosalicylic Acid] | 111 |
| O=C(O)C(=O)CBr [3-bromopyruvic acid] | 103 |
| NS(=O)(=O)c1ccc([N+](=O)[O-])cc1 [4-Nitrobenzenesulfonamide] | 94.8 |
| Cc1ccccc1C(C(=O)NC1CCCCC1)N(C(=O)Cn1ccnc1C)c1cccc(F)c1 (stereo unspecified) [AGI-5198] | 96.5 |
| CC(C)(C#N)c1cc(Cn2cncn2)cc(C(C)(C)C#N)c1 [Anastrozole] | 93.2 |
| O=C(O)C1=CC(=C(c2ccc(O)c(C(=O)O)c2)c2ccc(O)c(C(=O)O)c2)C=CC1=O [Aurintricarboxylic acid] | 101 |

same assay, conditions: 10000 nM; 72 h

| SMILES | cell viability [%] |
| --- | --- |
| CN(C)C(=O)[C@H](O)[C@H](Cc1ccccc1)NC(=O)c1cc2cc(Cl)ccc2[nH]1 | 79 |
| COc1ccc(CNC(=O)Nc2ncc([N+](=O)[O-])s2)cc1 | 97.7 |
| CCOP(=O)(OCC)C(=Cc1cc(C(C)(C)C)c(O)c(C(C)(C)C)c1)P(=O)(OCC)OCC | 90.1 |
| COc1ccc(-c2ccccc2)cc1NS(=O)(=O)c1cc(Cl)cc(Cl)c1O | 86.9 |
| C[C@H](NC(=O)c1sccc1OCc1ccc(Cl)cc1)c1ccccc1 | 62 |
| O=C(O)c1cc(Cl)cc(Cl)c1O [3,5-Dichlorosalicylic Acid] | 90.9 |
| O=C(O)C(=O)CBr [3-bromopyruvic acid] | 106 |
| NS(=O)(=O)c1ccc([N+](=O)[O-])cc1 [4-Nitrobenzenesulfonamide] | 100 |
| Cc1ccccc1C(C(=O)NC1CCCCC1)N(C(=O)Cn1ccnc1C)c1cccc(F)c1 (stereo unspecified) [AGI-5198] | 104 |
| CC(C)(C#N)c1cc(Cn2cncn2)cc(C(C)(C)C#N)c1 [Anastrozole] | 92.1 |
| O=C(O)C1=CC(=C(c2ccc(O)c(C(=O)O)c2)c2ccc(O)c(C(=O)O)c2)C=CC1=O [Aurintricarboxylic acid] | 128 |

system: BV-173; assay: as above; conditions: 1 nM; 72 h
Outline: as §1

| SMILES | cell viability [%] |
| --- | --- |
| CN(C)C(=O)[C@H](O)[C@H](Cc1ccccc1)NC(=O)c1cc2cc(Cl)ccc2[nH]1 | 88.3 |
| COc1ccc(CNC(=O)Nc2ncc([N+](=O)[O-])s2)cc1 | 91.7 |
| CCOP(=O)(OCC)C(=Cc1cc(C(C)(C)C)c(O)c(C(C)(C)C)c1)P(=O)(OCC)OCC | 92.7 |
| COc1ccc(-c2ccccc2)cc1NS(=O)(=O)c1cc(Cl)cc(Cl)c1O | 98.9 |
| C[C@H](NC(=O)c1sccc1OCc1ccc(Cl)cc1)c1ccccc1 | 93.5 |
| O=C(O)c1cc(Cl)cc(Cl)c1O [3,5-Dichlorosalicylic Acid] | 107 |
